Marks after values point to notes of the source that are not given here.
Key:
[1] = test system: HCT-116 colon cancer xenografts; assay: Tumor growth inhibition of HCT-116 colon cancer xenografts in tumor-bearing nude mice (tumor volume, TGI %, RTV, T/C %); type: in vivo, Balb/c Nude mice; details: for T/C % (relative tumor proliferation rate): single-dose intraperitoneal, dosage mg/kg: G3, G4, G8 350, G5, G9 325, G6 300, G7 250;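 for T/C % (relative tumor proliferation rate): control C is the vehicle-treated model control group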
In short: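 Tumors in HCT-116-inoculated nude mice were sized three times weekly by diameter, with volume V=3/4π(D/2)^3. Significance set at P<0.05.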

[2] = In short: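 Test compounds formulated in ethanol:Cremophor EL:saline (5:5:90), vehicle alone as control, in HCT-116 subcutaneous xenografts in female Balb/c nudes (6/group, start 60–150 mm^3). Weight measured three times weekly, tumour weight at end; unpaired t-test on Mean±SEM data.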
ICR mice = assay: in vivo; details: female ICR mice; single-dose ip
In short: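 MTD, the dose without mortality, body-weight loss over 10% from Day 0 or marked adverse signs, was found by stepwise up/down single intraperitoneal dosing of female SPF ICR mice. Vehicle: ethanol:Cremophor EL:saline 5:5:90. Animals weighed daily and clinically checked twice daily for up to 14 days.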

[3] = Day 0, G3-G9 groups, single IP dose, Mean±SEM
[4] = Day 4, G3-G9 groups, single IP dose, Mean±SEM
[5] = Day 6, G3-G9 groups, single IP dose, Mean±SEM
[6] = Day 8, G3-G9 groups, single IP dose, Mean±SEM
[7] = Day 11, G3-G9 groups, single IP dose, Mean±SEM
[8] = Day 13, G3-G9 groups, single IP dose, Mean±SEM
[9] = Day 15, G3-G9 groups, single IP dose, Mean±SEM
[10] = Day 18, G3-G9 groups, single IP dose, Mean±SEM
[11] = Day 20, G3-G9 groups, single IP dose, Mean±SEM
[12] = Day 22, G3-G9 groups, single IP dose, Mean±SEM

O=C(Nc1nc(=O)n([C@@H]2O[C@H](CO)[C@@H](O)C2(F)F)cc1Br)OCc1ccccc1 [Compound G7, 5-Br-4-N-(carboxybenzyl)-2′-deoxy-2′,2′-difluorocytidine]
Day 0 (RTV) [1, 3]: 1.00 ± 0.00
Tumor volume, Day 0 [1, 3]: 133.56 ± 10.23 mm^3
T/C % (relative tumor proliferation rate) ([1]; Day 0): 0.00%
Day 4 (TGI %) ([1]; Day 4, G3-G9 groups, single IP dose): 53.12%
Day 4 (RTV) [1, 4]: 0.92 ± 0.08
Tumor volume, Day 4 [1, 4]: 124.90 ± 18.89* mm^3
T/C % (relative tumor proliferation rate) ([1]; Day 4): 48.99%
Day 6 (TGI %) ([1]; Day 6, G3-G9 groups, single IP dose): 78.40%
Day 6 (RTV) [1, 5]: 0.66 ± 0.12
Tumor volume, Day 6 [1, 5]: 91.30 ± 21.79** mm^3
T/C % (relative tumor proliferation rate) ([1]; Day 6): 22.02%
Day 8 (TGI %) ([1]; Day 8, G3-G9 groups, single IP dose): 82.62%
Day 8 (RTV) [1, 6]: 0.66 ± 0.12
Tumor volume, Day 8 [1, 6]: 91.30 ± 21.79*** mm^3
T/C % (relative tumor proliferation rate) ([1]; Day 8): 17.67%
tumor inhibition effect ([1]; Day 8 to Day 13 after single-dose intraperitoneal administration): good tumor inhibition effect
Day 11 (TGI %) ([1]; Day 11, G3-G9 groups, single IP dose): 81.27%
Day 11 (RTV) [1, 7]: 1.10 ± 0.23
Tumor volume, Day 11 [1, 7]: 150.60 ± 38.77** mm^3
T/C % (relative tumor proliferation rate) ([1]; Day 11): 18.54%
Day 13 (TGI %) ([1]; Day 13, G3-G9 groups, single IP dose): 80.80%
Day 13 (RTV) [1, 8]: 1.66 ± 0.10
Tumor volume, Day 13 [1, 8]: 222.86 ± 25.56** mm^3
T/C % (relative tumor proliferation rate) ([1]; Day 13): 19.33%
Day 15 (TGI %) ([1]; Day 15, G3-G9 groups, single IP dose): 72.81%
Day 15 (RTV) [1, 9]: 2.91 ± 0.35
Tumor volume, Day 15 [1, 9]: 384.06 ± 36.79* mm^3
T/C % (relative tumor proliferation rate) ([1]; Day 15): 27.80%
Day 18 (TGI %) ([1]; Day 18, G3-G9 groups, single IP dose): 65.62%
Day 18 (RTV) [1, 10]: 4.86 ± 0.65
Tumor volume, Day 18 [1, 10]: 636.39 ± 30.26* mm^3
T/C % (relative tumor proliferation rate) ([1]; Day 18): 35.32%
Day 20 (TGI %) ([1]; Day 20, G3-G9 groups, single IP dose): 51.28%
Day 20 (RTV) [1, 11]: 7.99 ± 1.70
Tumor volume, Day 20 [1, 11]: 1032.60 ± 127.82 mm^3
T/C % (relative tumor proliferation rate) ([1]; Day 20): 50.40%
Day 22 (TGI %) ([1]; Day 22, G3-G9 groups, single IP dose): 44.07%
Day 22 (RTV) [1, 12]: 11.40 ± 2.93
Tumor volume, Day 22 [1, 12]: 1462.80 ± 246.74 mm^3
T/C % on Day 22 ([1]; Day 22, G4 350 mg/kg, G5 325 mg/kg, G7 250 mg/kg, single IP): 58.62%
T/C % (relative tumor proliferation rate) ([1]; Day 22): 58.62%
relative tumor volume compared with the model control group ([1]; G4 and G5 Day 4 to Day 18, G7 Day 4 to Day 15 (p<0.05-0.01), G9 only Day 4 (p<0.05)): reduced significantly
maximum value of TGI % ([1]; day of maximum: G3 Day 8, G4 Day 11, G5 Day 11, G9 Day 4, G7 Day 8, single IP): 82.62%
minimum value of T/C % ([1]; day of minimum: G4 Day 13, G5 Day 11, G7 Day 8, single IP): 17.67%
Weight change rate, Day 0 [2, 3]: 0.00 ± 0.00%
Weight of mice, Day 0 [2, 3]: 21.63 ± 1.17 g
weights of animals on Day 4 after administration ([2]; Day 4 (G7: Day 4 and Day 6), p<0.05): significantly reduced
Weight change rate, Day 4 [2, 4]: −12.28 ± 4.78 %
Weight of mice, Day 4 [2, 4]: 18.87 ± 0.09 g
weight loss rate on Day 4 after administration ([2]; Day 4, G4 350 mg/kg, G5 325 mg/kg, G7 250 mg/kg, single IP): 12.28±4.78%
Weight change rate, Day 6 [2, 5]: −4.39 ± 3.60 %
Weight of mice, Day 6 [2, 5]: 20.60 ± 0.32 g
weight loss rate on Day 6 after administration ([2]; Day 6, G7 250 mg/kg, single IP): 4.39±3.6%
Weight change rate, Day 8 [2, 6]: −1.24 ± 2.80%
Weight of mice, Day 8 [2, 6]: 21.30 ± 0.55 g
Weight change rate, Day 11 [2, 7]: 1.86 ± 3.24%
Weight of mice, Day 11 [2, 7]: 21.97 ± 0.59 g
Weight change rate, Day 13 [2, 8]: 5.62 ± 2.15%
Weight of mice, Day 13 [2, 8]: 22.80 ± 0.76 g
Weight change rate, Day 15 [2, 9]: 7.71 ± 1.47%
Weight of mice, Day 15 [2, 9]: 23.27 ± 0.93 g
Weight change rate, Day 18 [2, 10]: 6.51 ± 2.30%
Weight of mice, Day 18 [2, 10]: 23.00 ± 0.90 g
Weight change rate, Day 20 [2, 11]: 5.54 ± 2.07%
Weight of mice, Day 20 [2, 11]: 22.80 ± 1.00 g
Weight change rate, Day 22 [2, 12]: 4.65 ± 2.51%
Weight of mice, Day 22 [2, 12]: 22.60 ± 0.95 g
Day 22 Mortality ([2]; Day 22, single IP dose (mg/kg)): 0%
clinical symptoms ([2]; after single IP dose, compared with model control group): no significant differences in clinical symptoms
dose that could be tolerated (maximum tolerated dose, MTD) (ICR mice): 200 mg/kg

From US10174067B2, “Type of cytidine derivative and application thereof” (priority 2014, dated 2019)
